Among the data in US7579356B2, “Thia-tetraazaacenaphthylene kinase inhibitors” (Janssen Pharmaceutica NV, priority 2005, dated 2009) are IC50 and inhibition values, retold here.

Assay [1] has as its target T1, HER-2 (Homo sapiens, UniProt P04626).
T1 construct: His6 with thrombin site (N); purchased Proqinase (Freiburg, Germany)
The experiment in a line: HER-2 Kinase Assay. It counts as biochemical. Conditions: for IC50: value in parentheses; for inhibition at 1 µM: test concentration of 1 μM. A digest of the protocol:
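Read-out was scintillation counting of 33P incorporated into biotinylated polyGluTyr captured on streptavidin plates. Reactions ran 1 h at 30 °C with GST-fused HER-2 residues 679–1255, 1 μM ATP, Mn2+ and Mg2+ at pH 7.5; data given as percent inhibition at 1 μM, with IC50 where determined.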

Assay [2] concerns the target T2, EGFR (Homo sapiens, UniProt P00533).
T2 construct: The intracellular portion of EGFR started at nucleotide 2189 (corresponding to amino acid 667) and ended at the termination codon; made in house; host or cells: Sf9 insect cells (baculovirus)
The experiment in a line: EGFR Kinase Assay. It counts as biochemical. The settings on record: for IC50: GST-EGFR, ATP 5 μM; for inhibition at 2 µM: test concentration of 2 μM, compounds without an IC50, read-out: EGFR inhibition in percent. A digest of the protocol: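 Potency came from triplicate 16-point half-log titrations starting at 200 uM, with IC50 fitted from % inhibition against log concentration, or % inhibition at 2 μM otherwise. Reaction: Sf9-made GST–EGFR cytoplasmic region (aa 667 onward), biotin-polyGluTyr, 5 μM ATP with 33P tracer, pH 8.0 Tris/Mg/vanadate/DTT, 30 °C for 1 h; captured on streptavidin Flashplates and counted.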

The structures appear in SMILES notation. Some results are limits rather than exact numbers.

T1 sequence (P04626 679-1255): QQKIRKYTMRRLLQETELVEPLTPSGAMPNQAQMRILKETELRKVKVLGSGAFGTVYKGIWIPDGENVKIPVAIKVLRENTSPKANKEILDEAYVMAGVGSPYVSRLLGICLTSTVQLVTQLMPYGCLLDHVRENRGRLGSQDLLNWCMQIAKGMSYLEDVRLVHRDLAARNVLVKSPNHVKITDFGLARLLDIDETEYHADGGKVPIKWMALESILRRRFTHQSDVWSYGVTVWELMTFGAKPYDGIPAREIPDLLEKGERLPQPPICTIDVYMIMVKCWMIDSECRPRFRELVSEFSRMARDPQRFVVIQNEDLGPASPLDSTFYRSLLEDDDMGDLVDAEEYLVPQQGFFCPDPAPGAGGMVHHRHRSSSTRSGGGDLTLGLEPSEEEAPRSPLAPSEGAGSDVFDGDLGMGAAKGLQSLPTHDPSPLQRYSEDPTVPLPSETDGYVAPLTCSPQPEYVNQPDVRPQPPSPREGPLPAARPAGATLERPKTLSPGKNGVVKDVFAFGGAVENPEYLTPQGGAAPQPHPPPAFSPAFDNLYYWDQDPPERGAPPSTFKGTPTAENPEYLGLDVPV
T2 sequence (P00533 669-1210 limits assumed): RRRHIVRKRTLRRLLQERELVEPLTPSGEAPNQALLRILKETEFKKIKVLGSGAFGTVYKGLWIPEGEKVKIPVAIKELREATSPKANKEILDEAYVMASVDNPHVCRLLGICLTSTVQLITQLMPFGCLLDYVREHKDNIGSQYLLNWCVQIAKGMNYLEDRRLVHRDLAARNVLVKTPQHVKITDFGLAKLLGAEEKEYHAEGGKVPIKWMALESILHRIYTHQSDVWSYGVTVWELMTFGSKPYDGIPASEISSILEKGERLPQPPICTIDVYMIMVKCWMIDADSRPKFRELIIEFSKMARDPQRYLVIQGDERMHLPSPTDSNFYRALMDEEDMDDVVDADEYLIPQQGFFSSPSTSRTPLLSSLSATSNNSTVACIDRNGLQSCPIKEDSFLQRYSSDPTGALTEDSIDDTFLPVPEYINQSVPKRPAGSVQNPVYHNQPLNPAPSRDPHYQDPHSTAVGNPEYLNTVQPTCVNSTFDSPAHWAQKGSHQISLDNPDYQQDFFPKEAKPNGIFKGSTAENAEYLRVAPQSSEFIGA

The term IC50 denotes the concentration that gives 50% inhibition. On to `COc1cc(NC(=O)c2sc3ncnc4c3c2NC(=O)N4c2ccc(OCc3cccs3)c(Cl)c2)ccc1CN1CCOCC1` [Cpd 229, 5-[3-chloro-4-(thiophen-2-ylmethoxy)-phenyl]-4-oxo-4,5-dihydro-3H-1-thia-3,5,6,8-tetraaza-acenaphthylene-2-carboxylic acid (3-methoxy-4-morpholin-4-ylmethyl-phenyl)-amide], for which the IC50 was found to be 17 nM in assay [1] and 33 nM in assay [2].
Turning to `O=C(Nc1ccc(CN2CCCCC2)cc1)c1sc2ncnc3c2c1NC(=O)N3c1ccc(Oc2cccnc2)c(Cl)c1` [Cpd 209, 5-[3-chloro-4-(pyridin-3-yloxy)-phenyl]-4-oxo-4,5-dihydro-3H-1-thia-3,5,6,8-tetraaza-acenaphthylene-2-carboxylic acid (4-piperidin-1-ylmethyl-phenyl)-amide], the IC50 was 72 nM in assay [1] and 101 nM in assay [2].
In the same order, the values of `CN1CCN(Cc2ccc(NC(=O)c3sc4ncnc5c4c3NC(=O)N5c3cccc(Oc4ccccc4)c3)cc2)CC1` [Cpd 199, 4-oxo-5-(3-phenoxy-phenyl)-4,5-dihydro-3H-1-thia-3,5,6,8-tetraaza-acenaphthylene-2-carboxylic acid [4-(4-methyl-piperazin-1-ylmethyl)-phenyl]-amide] are 613 nM and 155 nM.
In the same order, the values of `CC1COCC(C)N1Cc1ccc(NC(=O)c2sc3ncnc4c3c2NC(=O)N4c2ccc(Oc3ccccc3)cc2)cc1` (centres unmarked) [Cpd 253, 4-oxo-5-(4-phenoxy-phenyl)-4,5-dihydro-3H-1-thia-3,5,6,8-tetraaza-acenaphthylene-2-carboxylic acid [4-(3,5-dimethyl-morpholin-4-ylmethyl)-phenyl]-amide] are 344 nM and 120 nM.
The term inhibition denotes the drop in the measured response relative to a control, in per cent. In the case of `CN1CCN(Cc2ccc(NC(=O)c3sc4ncnc5c4c3NC(=O)N5c3ccc(F)c(Cl)c3)cc2)CC1` [Cpd 14, 5-(3-chloro-4-fluoro-phenyl)-4-oxo-4,5-dihydro-3H-1-thia-3,5,6,8-tetraaza-acenaphthylene-2-carboxylic acid [4-(4-methyl-piperazin-1-ylmethyl)-phenyl]-amide], in assay [1], the inhibition at 1 µM is -1%. Further, the IC50 in assay [2] amounted to 43 nM.
Regarding `O=C(Nc1ccc(CCN2CCCCC2)cc1)c1sc2ncnc3c2c1NC(=O)N3c1cccc2ccoc12` [Cpd 251, 5-benzofuran-7-yl-4-oxo-4,5-dihydro-3H-1-thia-3,5,6,8-tetraaza-acenaphthylene-2-carboxylic acid [4-(2-piperidin-1-yl-ethyl)-phenyl]-amide], the IC50 is 285 nM in assay [1] and 141 nM in assay [2].
For `COc1ccc(N2C(=O)Nc3c(C(=O)Nc4ccc(OCC5CCCCO5)c(OC)c4)sc4ncnc2c34)c(F)c1` (centres unmarked) [Cpd 68, 5-(2-fluoro-4-methoxy-phenyl)-4-oxo-4,5-dihydro-3H-1-thia-3,5,6,8-tetraaza-acenaphthylene-2-carboxylic acid [3-methoxy-4-(tetrahydro-pyran-2-ylmethoxy)-phenyl]-amide], the inhibition at 1 µM in assay [1] was -8%. In addition, half-maximal inhibition in assay [2] (IC50) was put at 690 nM.
Take `O=C(Nc1ccc(N2C(=O)Nc3c(C(=O)Nc4ccc(CN5CCCCC5)cc4)sc4ncnc2c34)cc1)c1ccccc1` [Cpd 249, 5-(4-benzoylamino-phenyl)-4-oxo-4,5-dihydro-3H-1-thia-3,5,6,8-tetraaza-acenaphthylene-2-carboxylic acid (4-piperidin-1-ylmethyl-phenyl)-amide]: the IC50 in assay [1] is greater than 100000 nM. Also, in assay [2], the inhibition at 2 µM was 9%.
As for `O=C(Nc1ccc(CN2CCOCC2)c(Cl)c1)c1sc2ncnc3c2c1NC(=O)N3c1ccc(Oc2ccccc2)cc1` [Cpd 221, 4-oxo-5-(4-phenoxy-phenyl)-4,5-dihydro-3H-1-thia-3,5,6,8-tetraaza-acenaphthylene-2-carboxylic acid (3-chloro-4-morpholin-4-ylmethyl-phenyl)-amide], the IC50 in assay [1] was 111 nM; in assay [2], 85 nM.
In the same order, the values of `COc1cc(N2C(=O)Nc3c(C(=O)Nc4ccc(CN5CCCCC5)cc4)sc4ncnc2c34)ccc1Br` [Cpd 81, 5-(4-bromo-3-methoxy-phenyl)-4-oxo-4,5-dihydro-3H-1-thia-3,5,6,8-tetraaza-acenaphthylene-2-carboxylic acid (4-piperidin-1-ylmethyl-phenyl)-amide] are 695 nM and 498 nM.
In the case of `CCOC(=O)c1sc2ncnc3c2c1NC(=O)N3c1ccc(NC(=O)c2ccccc2)cc1` [Cpd 241, 5-(4-benzoylamino-phenyl)-4-oxo-4,5-dihydro-3H-1-thia-3,5,6,8-tetraaza-acenaphthylene-2-carboxylic acid ethyl ester], the IC50 in assay [1] was greater than 100000 nM. For the same molecule, the inhibition at 2 µM in assay [2] was -2%.
Consider `O=C(Nc1ccc(CN2CCOCC2)cc1)c1sc2ncnc3c2c1NC(=O)N3c1ccc2nc(Cc3cccc(F)c3)[nH]c2c1` [Cpd 193, 5-[2-(3-fluoro-benzyl)-3H-benzoimidazol-5-yl]-4-oxo-4,5-dihydro-3H-1-thia-3,5,6,8-tetraaza-acenaphthylene-2-carboxylic acid (4-morpholin-4-ylmethyl-phenyl)-amide], for which the IC50 is greater than 1000 nM in assay [1] and 704 nM in assay [2].
For `O=C(Nc1ccc(CN2CCC(CO)CC2)cc1)c1sc2ncnc3c2c1NC(=O)N3c1ccc(Oc2ccccc2)cc1` [Cpd 254, 4-oxo-5-(4-phenoxy-phenyl)-4,5-dihydro-3H-1-thia-3,5,6,8-tetraaza-acenaphthylene-2-carboxylic acid [4-(4-hydroxymethyl-piperidin-1-ylmethyl)-phenyl]-amide], in that order: 68 nM and 26 nM.
For the molecule `CCOC(=O)c1sc2ncnc3c2c1NC(=O)N3c1ccc(OCc2ccco2)c(Cl)c1` [Cpd 222, 5-[3-chloro-4-(furan-2-ylmethoxy)-phenyl]-4-oxo-4,5-dihydro-3H-1-thia-3,5,6,8-tetraaza-acenaphthylene-2-carboxylic acid ethyl ester], the IC50 in assay [1] is greater than 100000 nM. Also, in assay [2], the inhibition at 2 µM is 4%.
`COc1ccc(N2C(=O)Nc3c(C(=O)Nc4ccc(CN5CCOCC5)c(OC)c4)sc4ncnc2c34)cc1Br` [Cpd 183, 5-(3-bromo-4-methoxy-phenyl)-4-oxo-4,5-dihydro-3H-1-thia-3,5,6,8-tetraaza-acenaphthylene-2-carboxylic acid (3-methoxy-4-morpholin-4-ylmethyl-phenyl)-amide]: the IC50 in assay [1] was 980 nM; in assay [2], 420 nM.
As to `COc1ccc(N2C(=O)Nc3c(C(=O)Nc4ccc(CN5CCCCC5)cc4)sc4ncnc2c34)cc1Br` [Cpd 182, 5-(3-bromo-4-methoxy-phenyl)-4-oxo-4,5-dihydro-3H-1-thia-3,5,6,8-tetraaza-acenaphthylene-2-carboxylic acid (4-piperidin-1-ylmethyl-phenyl)-amide], the IC50 in assay [1] is 1680 nM; in assay [2] it was 880 nM.
As for `O=C(Nc1cccc(CN2CCOCC2)c1)c1sc2ncnc3c2c1NC(=O)N3c1ccc(Oc2ccccc2)cc1` [Cpd 220, 4-oxo-5-(4-phenoxy-phenyl)-4,5-dihydro-3H-1-thia-3,5,6,8-tetraaza-acenaphthylene-2-carboxylic acid (3-morpholin-4-ylmethyl-phenyl)-amide], the IC50 in assay [1] stood at 355 nM; in assay [2], 141 nM.
For `COc1cc(NC(=O)c2sc3ncnc4c3c2NC(=O)N4c2ccc(Oc3cccc(F)c3)c(Cl)c2)ccc1OCCN1CCCCC1` [Cpd 161, 5-[3-chloro-4-(3-fluoro-phenoxy)-phenyl]-4-oxo-4,5-dihydro-3H-1-thia-3,5,6,8-tetraaza-acenaphthylene-2-carboxylic acid [3-methoxy-4-(2-piperidin-1-yl-ethoxy)-phenyl]-amide], in that order: 699 nM and 23 nM.
For `O=C(Nc1ccc(CN2CCOCC2)cc1)c1sc2ncnc3c2c1NC(=O)N3c1ccc(OCc2ccccn2)c(Br)c1` [Cpd 180, 5-[3-bromo-4-(pyridin-2-ylmethoxy)-phenyl]-4-oxo-4,5-dihydro-3H-1-thia-3,5,6,8-tetraaza-acenaphthylene-2-carboxylic acid (4-morpholin-4-ylmethyl-phenyl)-amide], in that order: 112 nM and 95 nM.
For the molecule `COc1cc(NC(=O)c2sc3ncnc4c3c2NC(=O)N4c2ccc(Sc3ccccc3)cc2)ccc1CN1CCCCC1` [Cpd 224, 4-oxo-5-(4-phenylsulfanyl-phenyl)-4,5-dihydro-3H-1-thia-3,5,6,8-tetraaza-acenaphthylene-2-carboxylic acid (3-methoxy-4-piperidin-1-ylmethyl-phenyl)-amide], the figures for the IC50 in assay [1] and in assay [2] were 27 nM and 14 nM, respectively.
As for `CN1CCN(C(=O)c2sc3ncnc4c3c2NC(=O)N4c2ccc(Oc3ccccc3)cc2)CC1` [Cpd 216, 2-(4-methyl-piperazine-1-carbonyl)-5-(4-phenoxy-phenyl)-3H,5H-1-thia-3,5,6,8-tetraaza-acenaphthylen-4-one], the IC50 in assay [1] is roughly 100000 nM; in assay [2] it was 780 nM.
For `O=C(Nc1ccc(CN2CCCCC2)cc1)c1sc2ncnc3c2c1NC(=O)N3c1ccc(OCc2ccco2)c(Cl)c1` [Cpd 244, 5-[3-chloro-4-(furan-2-ylmethoxy)-phenyl]-4-oxo-4,5-dihydro-3H-1-thia-3,5,6,8-tetraaza-acenaphthylene-2-carboxylic acid (4-piperidin-1-ylmethyl-phenyl)-amide], the IC50 in assay [1] stood at 85 nM; in assay [2], 23 nM.
